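Cells were grown in 96-well plates and exposed to each compound for 48 hours at five concentrations; endpoints were interpolated linearly between bracketing concentrations, or set to the highest concentration if not reached. TGI denotes the concentration required for complete inhibition of growth.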
What was measured:
Test in all cases: NCI-60 cell line screen, 48 h
[1] = tested on: MOLT-4 leukemia
[2] = tested on: KM12 colon
[3] = tested on: HOP-92 NSCLC
[4] = tested on: NCI/ADR-RES ovarian
[5] = tested on: HL-60(TB) leukemia
[6] = tested on: HS 578T breast
[7] = tested on: NCI-H460 lung
[8] = tested on: UO-31 renal
[9] = tested on: U251 CNS
[10] = tested on: DU-145 prostate
[11] = tested on: SNB-78 CNS
[12] = tested on: UACC-62 melanoma
[13] = tested on: LOX IMVI melanoma
[14] = tested on: SN12C renal
[15] = tested on: OVCAR-4 ovarian
[16] = tested on: CCRF-CEM leukemia
[17] = tested on: NCI-H522 lung
[18] = tested on: SR leukemia
[19] = tested on: MCF7 breast
[20] = tested on: HOP-18 NSCLC
[21] = tested on: CAKI-1 renal
[22] = tested on: RPMI-8226 leukemia
[23] = tested on: SF-539 CNS
[24] = tested on: HCT-116 colon
[25] = tested on: IGROV1 ovarian
[26] = tested on: OVCAR-3 ovarian
[27] = tested on: LXFL 529 NSCLC
[28] = tested on: KM20L2 colon
[29] = tested on: SK-OV-3 ovarian
[30] = tested on: MDA-MB-231 breast
[31] = tested on: M19-MEL melanoma
[32] = tested on: UACC-257 melanoma
[33] = tested on: SK-MEL-2 melanoma
[34] = tested on: SW-620 colon
[35] = tested on: NCI-H23 lung
[36] = tested on: MDA-MB-435
[37] = tested on: TK-10 renal
[38] = tested on: HOP-62 NSCLC
[39] = tested on: DMS 273 small cell lung
[40] = tested on: T-47D breast
[41] = tested on: K-562 leukemia
[42] = tested on: HCT-15 colon
[43] = tested on: COLO 205 colon
[44] = tested on: MALME-3M melanoma
[45] = tested on: A498 renal
[46] = tested on: PC-3 prostate
[47] = tested on: EKVX NSCLC
[48] = tested on: XF 498 CNS
[49] = tested on: OVCAR-5 ovarian
[50] = tested on: ACHN renal
[51] = tested on: SK-MEL-5 melanoma
[52] = tested on: A549 NSCLC
[53] = tested on: SK-MEL-28 melanoma
[54] = tested on: DLD-1 colon
[55] = tested on: HCC-2998 colon
[56] = tested on: SNB-75 CNS
[57] = tested on: M14 melanoma
[58] = tested on: SNB-19 CNS
[59] = tested on: RXF 393 renal
[60] = tested on: OVCAR-8 ovarian
[61] = tested on: DMS 114 small cell lung
[62] = tested on: HT29 colon
[63] = tested on: SF-295 CNS
[64] = tested on: MDA-N
[65] = tested on: SF-268 CNS
[66] = tested on: 786-0 renal
[67] = tested on: NCI-H226 lung
[68] = tested on: BT-549 breast

Structure (SMILES): C/C(=N\NC(=S)N1CCC(N2CCCCC2)CC1)c1ccccn1
- TGI [1]: > 21 µM
- TGI [2]: 9.53 µM
- TGI [3]: 9.79 µM
- TGI [4]: 5.67 µM
- TGI [5]: > 21 µM
- TGI [6]: 31.7 µM
- TGI [7]: 7.23 µM
- TGI [8]: 3.3 µM
- TGI [9]: 9.86 µM
- TGI [10]: 11.2 µM
- TGI [11]: 27.5 µM
- TGI [12]: 10.7 µM
- TGI [13]: 8.28 µM
- TGI [14]: 8.17 µM
- TGI [15]: 16.7 µM
- TGI [16]: 34.3 µM
- TGI [17]: 0.646 µM
- TGI [18]: 9.74 µM
- TGI [19]: 10.6 µM
- TGI [20]: 14.5 µM
- TGI [21]: 5.87 µM
- TGI [22]: > 29.4 µM
- TGI [23]: 8.36 µM
- TGI [24]: 7.02 µM
- TGI [25]: 12.3 µM
- TGI [26]: 13.4 µM
- TGI [27]: 13.6 µM
- TGI [28]: 14.2 µM
- TGI [29]: 11.6 µM
- TGI [30]: 3.57 µM
- TGI [31]: 12.6 µM
- TGI [32]: 8.93 µM
- TGI [33]: > 100 µM
- TGI [34]: 12.2 µM
- TGI [35]: 12 µM
- TGI [36]: 6 µM
- TGI [37]: 6.29 µM
- TGI [38]: > 19.8 µM
- TGI [39]: 9.43 µM
- TGI [40]: 7.01 µM
- TGI [41]: > 100 µM
- TGI [42]: 6.13 µM
- TGI [43]: 9.95 µM
- TGI [44]: > 100 µM
- TGI [45]: 5.21 µM
- TGI [46]: 10.3 µM
- TGI [47]: 12.1 µM
- TGI [48]: 19.6 µM
- TGI [49]: 10.2 µM
- TGI [50]: 5.65 µM
- TGI [51]: 8.22 µM
- TGI [52]: 10.3 µM
- TGI [53]: 13.7 µM
- TGI [54]: > 100 µM
- TGI [55]: > 24.3 µM
- TGI [56]: 11.2 µM
- TGI [57]: 3.8 µM
- TGI [58]: 11.3 µM
- TGI [59]: 2.29 µM
- TGI [60]: 11.7 µM
- TGI [61]: 8.86 µM
- TGI [62]: 9.88 µM
- TGI [63]: 7.12 µM
- TGI [64]: 5.9 µM
- TGI [65]: 12.9 µM

Structure (SMILES): O=[N+]([O-])c1ccc(C2ON=C(c3ccccc3)N2C23CC4CC(CC(C4)C2)C3)cc1 (stereo not drawn)
- TGI [1]: > 10 µM
- TGI [2]: > 10 µM
- TGI [3]: > 10 µM
- TGI [4]: > 10 µM
- TGI [5]: > 10 µM
- TGI [6]: > 10 µM
- TGI [7]: > 10 µM
- TGI [9]: > 10 µM
- TGI [10]: > 10 µM
- TGI [12]: > 10 µM
- TGI [13]: > 10 µM
- TGI [14]: > 10 µM
- TGI [15]: > 10 µM
- TGI [16]: > 10 µM
- TGI [17]: > 10 µM
- TGI [18]: > 10 µM
- TGI [19]: > 10 µM
- TGI [66]: > 10 µM
- TGI [21]: > 10 µM
- TGI [22]: > 10 µM
- TGI [23]: > 10 µM
- TGI [67]: > 10 µM
- TGI [24]: > 10 µM
- TGI [25]: > 10 µM
- TGI [26]: > 10 µM
- TGI [29]: > 10 µM
- TGI [30]: > 10 µM
- TGI [32]: > 10 µM
- TGI [33]: > 10 µM
- TGI [34]: > 10 µM
- TGI [35]: > 10 µM
- TGI [36]: > 10 µM
- TGI [37]: > 10 µM
- TGI [38]: > 10 µM
- TGI [40]: > 10 µM
- TGI [41]: > 10 µM
- TGI [68]: > 10 µM
- TGI [42]: > 10 µM
- TGI [43]: > 10 µM
- TGI [44]: > 10 µM
- TGI [45]: > 10 µM
- TGI [46]: > 10 µM
- TGI [47]: > 10 µM
- TGI [49]: > 10 µM
- TGI [50]: > 10 µM
- TGI [51]: > 10 µM
- TGI [52]: > 10 µM
- TGI [53]: > 10 µM
- TGI [55]: > 10 µM
- TGI [56]: > 10 µM
- TGI [57]: > 10 µM
- TGI [58]: > 10 µM
- TGI [59]: > 10 µM
- TGI [60]: > 10 µM
- TGI [62]: > 10 µM
- TGI [63]: > 10 µM
- TGI [64]: > 10 µM
- TGI [65]: > 10 µM
